Measured values: US11957783B2, “Topical immunosensitizers to treat viral and fungal infections” (Squarex, LLC, priority 2018, dated 2024)
Where “and” joins values, the source holds several entries; their conditions need not be identical. Equal values may be shown once. Marks after values point to notes of the source that are not given here.

System: herpes labialis outbreak
Assay: Clinical trial of herpes labialis outbreaks after sensitization dose (Example 2)
Format: in vivo, human
Conditions: for Average days to first outbreak after the sensitization dose: 120 days used if no outbreak in 120 days
Protocol: The median time to the next outbreak for the placebo group was 40 days vs more than 122 days for the 2.0% SADBE group, which difference was highly significant (P=0.009) (Palli 2017). SADBE is a topical immunosensitizer that induces a delayed-type hypersensitivity response and is commonly used in the treatment of verruca vulgaris and alopecia areata (Lee 1999; Silverberg 2000, Rokhshar 1998). […]
(p<0.05). The average days to the first outbreak after the sensitization dose was also measured. […] The A: placebo, 0% SADBE in DMSO.

CCCCOc1c(OCCCC)c(=O)c1=O [2% SADBE]
Persons having an outbreak within X days after the sensitization dose (30 days, group B): 2 (of 16) | Persons having an outbreak within X days after the sensitization dose (30 days, group C): 3 (of 15) | Persons having an outbreak within X days after the sensitization dose (30 days, groups B + C): 5 (of 31) | Persons having an outbreak within X days after the sensitization dose (45 days, group B): 4 (of 16) | Persons having an outbreak within X days after the sensitization dose (45 days, group C): 4 (of 15) | Persons having an outbreak within X days after the sensitization dose (45 days, groups B + C): 8 (of 31) | Persons having an outbreak within X days after the sensitization dose (60 days, group B): 5 (of 16) | Persons having an outbreak within X days after the sensitization dose (60 days, group C): 4 (of 15) | Persons having an outbreak within X days after the sensitization dose (60 days, groups B + C): 9 (of 31) | Persons having an outbreak within X days after the sensitization dose (<120 days, group B): 6 (of 16) | Persons having an outbreak within X days after the sensitization dose (<120 days, group C): 4 (of 15) | Persons having an outbreak within X days after the sensitization dose (<120 days, groups B + C): 10 (of 31) | Days to first new outbreak after sensitization dose on upper arm (each patient): 18 days and 34 days and 37 days and 41 days and 50 days and 80 days and 91 days and >120 days (19×) and 14 days (2×) and 15 days | Average days to first outbreak after the sensitization dose (group B): 88.5 days | Average days to first outbreak after the sensitization dose (group C): 94.7 days | Average days to first outbreak after the sensitization dose (groups B + C): 91.5* days | Days to first new outbreak after sensitization dose on upper arm, median (treatment group): > 120 days
